Experiments:
tumor = conditions: intra-tumoral administration; cited from earlier work
[1] = test system: BMDCs derived from wild-type mice or Sting knockout mice; test: Identification of key adjuvant component in mRNA vaccine (EDOPC replaced with DOTAP); format: cell-based, mouse; conditions: Vehicle or MVP prepared with EDOPC or DOTAP; FIG. 22
Source text: In order to determine the role of the charged lipid (i.e., EDOPC), positively charged 1,2-dioleoyl-3-trimethylammonium-propane (DOTAP) was used to replace EDOPC to prepare vehicle and mRNA vaccine. The resulting vehicle (Vehicle with DOTAP) and mRNA vaccine (MVP with DOTAP) were applied to compare with the parental vehicle (Vehicle with EDOPC) and mRNA vaccine (MVP with EDOPC) on stimulation of cytokine expression after BMDC treatment.

BMDCs = test: Stimulation of cytokine production by mRNA vaccine in BMDCs (ELISA); format: cell-based, mouse; conditions: 24 hours; FIG. 20
Experimental: GM-CSF/IL4-induced BMDCs were seeded into 24-well plates at a seeding density of 5×10^5 cells/well, and treated with PBS control, the TLR7 agonist imiquimod, mRNA-free vehicle control, mRNA core control, or mRNA vaccine (MVP) for 24 hours. Cell growth media were collected and IFN-b and TNF-α levels were measured with ELISA assay (FIG. 20). To determine pathways that play important roles on stimulation of cytokine production, BMDCs were induced from bone marrow cells collected from wild-type mice, Sting knockout mice, and Tlr7 knockout mice. Cells were treated with PBS control, mRNA-free vehicle control, mRNA core control, or mRNA vaccine (MVP) for 24 hours, and cell growth media were collected 24 hours later for measurement of cytokine levels.

## Cc1ccc2c(=O)c3cccc(CC(=O)O)c3oc2c1C [DMXAA, 5,6-dimethylxanthenone-4-acetic acid]
tumor
  antitumor immunity: strong antitumor immunity

## CCCCCCCC/C=C\CCCCCCCC(=O)OC[C@@H](COP(=O)(OCC)OCC[N+](C)(C)C)OC(=O)CCCCCCC/C=C\CCCCCCCC (stereo partly shown) [EDOPC, 1,2-dioleoyl-sn-glycero-3-ethylphosphocholine]
[1]
  IFN-β level in growth media: essential for STING-dependent stimulation

## CC(C)Cn1cnc2c(N)nc3ccccc3c21 [imiquimod]
BMDCs
  IFN-β level in growth media: same as potent in stimulating IFN-β expression
  TNF-α level in growth media: same as potent in stimulating TNF-α expression
